The test system of test [1] is Bel-7402. Description: Cytotoxicity against human BEL-7402 cells by MTT assay. It is filed as functional, cell-based.
Test [2] relates to A549. Briefly: Cytotoxicity against human A549 cells by MTT assay. It is filed as functional, cell-based. (In general: Tetrazolium assays rely on reduction of a dye to a coloured formazan, in cell work by metabolically active cells.)
Test [3] concerns SW480. Briefly: Cytotoxicity against human SW480 cells by MTT assay. It is filed as functional, cell-based.
The subject of test [4] is B16. Description: Antitumor activity in mouse B16 cell xenografted mouse at 20 mg/kg/day, ip after 4 days. It is filed as functional. Particulars: 96 h, route intraperitoneal.
Test [5] relates to HL-60. Description: Cytotoxicity against human HL60 cells by MTT assay. It is filed as functional, cell-based.
Test [6] relates to H22. Briefly: Antitumor activity in mouse H22 cell xenografted mouse at 20 mg/kg/day, ip after 4 days. It is filed as functional. Particulars: 96 h, route intraperitoneal.
Test [7] deals with B16. Briefly: Cytotoxicity against mouse B16 cells by MTT assay. It is filed as functional, cell-based.
Test [8] can be described thus: Cytotoxicity against human BGC-7901 cells by MTT assay. It is filed as functional, cell-based.
Test [9] concerns H22. Briefly: Antitumor activity in mouse H22 cell xenografted mouse at 20 mg/kg/day, iv after 4 days. Particulars: 96 h, read-out: INH.
Test [10] has as its system B16. Briefly: Antitumor activity in mouse B16 cell xenografted mouse at 20 mg/kg/day, iv after 4 days. It is filed as functional. Particulars: B16, 96 h.

Consider `C=C1C(=O)[C@]23[C@H](OC(=O)C(Cc4ccccc4)NC(=O)/C=C/C(=O)O)[C@@H]1CC[C@H]2[C@@]12CO[C@]3(O)[C@@H](O)[C@@H]1C(C)(C)CCC2=O` (stereo partly specified), for which the IC50 in test [1] (read-out: IC50) amounted to 1 µM; in [2], 3.46 µM; in test [3], 2.89 µM; in [5], 2.07 µM; in [7] it was 8.22 µM; in [8], 3.02 µM. Also, the inhibition in vivo at 20 mg/kg/day in test [4] turned out to be 61.2%; in [6], 62.5%.
For the compound `C=C1C(=O)[C@]23[C@H](OC(=O)C(Cc4ccccc4)NC(=O)CCCCC(=O)O)[C@@H]1CC[C@H]2[C@@]12CO[C@]3(O)[C@@H](O)[C@@H]1C(C)(C)CCC2=O` (stereo partly specified), the IC50 in [1] (read-out: IC50) is 12.8 µM; in test [2] it was 8.06 µM; in [3], 7.3 µM; in [5], 6.24 µM; in test [7], 13.9 µM; in [8], 7.05 µM.
`C=C1C(=O)[C@]23[C@H](OC(=O)CNC(=O)CCC(=O)O)[C@@H]1CC[C@H]2[C@@]12CO[C@]3(O)[C@@H](O)[C@@H]1C(C)(C)CCC2=O`: the IC50 was 2.09 µM in test [1] (read-out: IC50); 11.5 µM in [2]; 10.2 µM in [3]; 7.76 µM in [5]; 8.57 µM in test [7]; 15.6 µM in test [8].
With `C=C1C(=O)[C@]23[C@H](OC(=O)C(N)Cc4ccccc4)[C@@H]1CC[C@H]2[C@@]12CO[C@]3(O)[C@@H](O)[C@@H]1C(C)(C)CCC2=O` (stereo partly specified), the IC50 worked out at 29.6 µM in [1] (read-out: IC50); 22.2 µM in test [2]; 15 µM in [3]; 27.5 µM in test [5]; 10.2 µM in test [7]; 10.5 µM in test [8].
For the compound `C=C1C(=O)[C@]23[C@H](OC(=O)CN)[C@@H]1CC[C@H]2[C@@]12CO[C@]3(O)[C@@H](O)[C@@H]1C(C)(C)CC[C@@H]2OC(C)=O`, the IC50 in test [1] (read-out: IC50) worked out at 17.9 µM; in [2] it was 11 µM; in test [3], 22.3 µM; in test [5], 12.3 µM; in [7], 12.4 µM; in [8] it was 18.2 µM.
With `C=C1C(=O)[C@]23[C@H](OC(=O)CNC(=O)c4ccccc4C(=O)O)[C@@H]1CC[C@H]2[C@@]12CO[C@]3(O)[C@@H](O)[C@@H]1C(C)(C)CC[C@@H]2OS(=O)(=O)CCC`, the IC50 in test [1] (read-out: IC50) stood at 39.1 µM; in test [2], 22.7 µM; in [3] it was 25.4 µM; in test [5], 13.8 µM; in [7], 17.6 µM; in [8], 20.9 µM.
For the compound `C=C1C(=O)[C@]23[C@H](OC(=O)CNC(=O)CCCCC(=O)O)[C@@H]1CC[C@H]2[C@@]12CO[C@]3(O)[C@@H](O)[C@@H]1C(C)(C)CC[C@@H]2OS(=O)(=O)CCC`, the concentration for half-maximal inhibition (IC50) in [1] (read-out: IC50) was 24.8 µM; in test [2], 14 µM; in test [3] it was 11.2 µM; in test [5], 9.5 µM; in test [7], 13 µM; in test [8] it was 15.3 µM.
With `C=C1C(=O)[C@]23[C@H](OC(=O)CNC(=O)CCCCC(=O)O)[C@@H]1CC[C@H]2[C@@]12CO[C@]3(O)[C@@H](O)[C@@H]1C(C)(C)CCC2=O`, the IC50 in test [1] (read-out: IC50) is 13.8 µM; in [2], 7.47 µM; in test [3], 10.2 µM; in test [5], 8.65 µM; in test [7] it was 16.4 µM; in [8], 15.1 µM.
Take `C=C1C(=O)[C@]23[C@H](OC(=O)C(Cc4ccccc4)NC(=O)CCC(=O)O)[C@@H]1CC[C@H]2[C@@]12CO[C@]3(O)[C@@H](O)[C@@H]1C(C)(C)CCC2=O` (stereo partly specified): the IC50 in test [1] (read-out: IC50) is 6.5 µM; in test [2] it was 17.1 µM; in test [3], 12.9 µM; in [5] it was 2.31 µM; in [7] it was 14.8 µM; in test [8], 5.96 µM. For the same compound, the inhibition in vivo at 20 mg/kg/day came out at 56.6% in [4] and 59.1% in test [6].
For the compound `C=C1C(=O)[C@]23[C@H](OC(=O)CNC(=O)CCCCC(=O)O)[C@@H]1CC[C@H]2[C@@]12CO[C@]3(O)[C@@H](O)[C@@H]1C(C)(C)CC[C@@H]2OC(C)=O`, the IC50 was determined as 8.26 µM in test [1] (read-out: IC50); 10.5 µM in test [2]; 10.7 µM in test [3]; 5.3 µM in [5]; 12.5 µM in test [7]; 13.2 µM in [8].
As for `C=C1C(=O)[C@]23[C@H](OC(=O)CNC(=O)/C=C/C(=O)O)[C@@H]1CC[C@H]2[C@@]12CO[C@]3(O)[C@@H](O)[C@@H]1C(C)(C)CC[C@@H]2OS(=O)(=O)CCC`, the IC50 in test [1] (read-out: IC50) came out at 19.1 µM; in test [2] it was 1.33 µM; in [3] it was 14.7 µM; in [5], 1.97 µM; in [7] it was 5.66 µM; in [8], 5.52 µM.
As for `C=C1C(=O)[C@]23[C@H](OC(=O)CNC(=O)/C=C/C(=O)O)[C@@H]1CC[C@H]2[C@@]12CO[C@]3(O)[C@@H](O)[C@@H]1C(C)(C)CC[C@@H]2OC(C)=O`, the IC50 was 1 µM in test [1] (read-out: IC50); 2.6 µM in test [2]; 2.6 µM in [3]; 0.84 µM in test [5]; 0.93 µM in [7]; 2.78 µM in test [8]. Besides, the inhibition in vivo at 20 mg/kg/day is 69.9% in [4] and 64.9% in test [6].
As to `C=C1C(=O)[C@]23[C@H](OC(=O)CN)[C@@H]1CC[C@H]2[C@@]12CO[C@]3(O)[C@@H](O)[C@@H]1C(C)(C)CCC2=O`, the IC50 was 30.3 µM in [1] (read-out: IC50); 20.6 µM in test [2]; 28.4 µM in test [3]; 24.8 µM in test [5]; 19.1 µM in [7]; 20.9 µM in [8].
On to `C=C1C(=O)[C@]23[C@H](OC(=O)CN)[C@@H]1CC[C@H]2[C@@]12CO[C@]3(O)[C@@H](O)[C@@H]1C(C)(C)CC[C@@H]2OS(=O)(=O)CCC`, for which the IC50 is 20.2 µM in test [1] (read-out: IC50); 16.3 µM in test [2]; 24.7 µM in [3]; 19.8 µM in [5]; 21.7 µM in [7]; 15.9 µM in test [8].
In the case of `O=P1(N(CCCl)CCCl)NCCCO1` (stereo unspecified) [CYCLOPHOSPHAMIDE ANHYDROUS], in test [9], the inhibition in vivo at 20 mg/kg/day was 54.3%.
Turning to `O=c1[nH]cc(F)c(=O)[nH]1` [FLUOROURACIL], the IC50 was 14.4 µM in [1]; 10.8 µM in test [2]; 13.2 µM in [3]; 21.4 µM in [5]; 8.73 µM in [7]; 16.4 µM in test [8]. For the same compound, in [10], the inhibition in vivo at 20 mg/kg/day is 73.5%.
As to `C=C1C(=O)[C@]23[C@H](O)[C@H]1CC[C@H]2[C@@]12CO[C@]3(O)[C@@H](O)[C@@H]1C(C)(C)CC[C@@H]2O` [ORIDONIN], the 50% inhibitory concentration (IC50) came out at 39.8 µM in test [1] (read-out: IC50); 27.2 µM in [2]; 31.4 µM in test [3]; 32.8 µM in [5]; 26.2 µM in [7]; 28.3 µM in test [8]. For the same compound, the inhibition in vivo at 20 mg/kg/day in test [4] came to 45.9%; in test [6], 42.7%.

Broadly, the IC50 is the concentration that inhibits the measured activity by half.

(Values after ChEMBL document CHEMBL1155921, “Synthesis and biological evaluation of novel 1-O- and 14-O-derivatives of oridonin as potential anticancer drug candidates” (Bioorg Med Chem Lett, 2008).)
